Where two headings read alike, the source gives them in different places.
System: pdr5 ypt1^ts cells
Assay: microbe, parasite or virus in culture
Type: cell-based, yeast
Conditions: for minimal effective concentration: Saccharomyces cerevisiae, lowest concentration tested giving growth above the 0 μM background, read-out: ypt1-ts MRC (minimal rescue concentration); for minimal effective concentration / optical density, ypt1-ts, 0.39 / optical density, ypt1-ts, 0.78 / optical density, ypt1-ts, 1.56 / optical density, ypt1-ts, 3.13 / optical density, ypt1-ts, 6.25 / optical density, ypt1-ts, 12.5 / optical density, ypt1-ts, 25: Table 2; for optical density, ypt1-ts, 0.39: 0.39 μM compound; for optical density, ypt1-ts, 0.39 / optical density, ypt1-ts, 0.78 / optical density, ypt1-ts, 1.56 / optical density, ypt1-ts, 3.13 / optical density, ypt1-ts, 6.25 / optical density, ypt1-ts, 12.5 / optical density, ypt1-ts, 25: background (0 μM) 0.058; for optical density, ypt1-ts, 0.78: 0.78 μM compound; for optical density, ypt1-ts, 1.56: 1.56 μM compound; for optical density, ypt1-ts, 3.13: 3.13 μM compound; for optical density, ypt1-ts, 6.25: 6.25 μM compound; for optical density, ypt1-ts, 12.5: 12.5 μM compound; for optical density, ypt1-ts, 25: 25 μM compound
Description: The activity of the compounds as modulators of protein trafficking may be measured in the assays described herein that evaluate the ability of a compound to rescue an impairment in protein trafficking. For example, the yeast mutant cell line ypt1^ts can be used to identify compounds that rescue cells from the lethal phenotype of a mutant YPT1 allele (see, e.g., Examples and Schmitt et al. (1988) Cell 53:635-47). The activity may be measured, for example, in a whole yeast cell assay using 384-well screening protocol and an optical density measurement.
The yeast mutant cell line ypt1^ts suppresses, in a temperature dependent fashion, the dominant-lethal phenotype of a mutant YPT1 allele (Schmitt et al. (1988) Cell 53:635-47). ypt1^ts cells grow normally at temperatures up to 30° C., but are growth arrested at 37° C. (Id.).
A library of compounds (“The Spectrum Collection”) obtained from Microsource Discovery Systems, Inc. (Gaylordsville, Conn.) was screened to assess the ability of individual compounds to restore growth of ypt1^ts cells. Screening was carried out using ypt1^ts cells containing a mutation in the pdr5 gene (resulting in inactivation of a membrane efflux pump). The effect of the compounds was measured in pdr5 ypt1^ts cells cultured at 37° C.

[1] = Table 3, 3.13 uM compound, 37° C., background (0 uM) 0.077
[2] = Table 3, 12.5 uM compound, 37° C., background (0 uM) 0.077
[3] = Table 3, 50 uM compound, 37° C., background (0 uM) 0.077

SMILES: CC1(C)CC2C1CCC1(CBr)CC[C@H]3C(CC(=O)O)C(=O)OC23C1 (stereo partly drawn) [BROMO-3-HYDROXY- 4-(SUCCIN-2-YL)- CARYOLANE gamma- LACTONE]
- minimal effective concentration (37° C.): 6.25 µM
- optical density, ypt1-ts, 0.39 (37° C.): 0.091
- optical density, ypt1-ts, 0.78 (37° C.): 0.079
- optical density, ypt1-ts, 1.56 (37° C.): 0.091
- optical density, ypt1-ts, 3.13 (37° C.): 0.101
- optical density, ypt1-ts, 6.25 (37° C.): 0.139
- optical density, ypt1-ts, 12.5 (37° C.): 0.245
- optical density, ypt1-ts, 25 (37° C.): 0.417

SMILES: COC(=O)C[C@H]1C(C)(C)C(=O)[C@@H]2CC3C4=CC(=O)O[C@@H](c5ccoc5)[C@]4(C)CCC3[C@]1(C)C2=O (stereo partly drawn) [CARAPIN]
- optical density, 3.13 uM [1]: 0.22
- optical density, 12.5 uM [2]: 0.357
- optical density, 50 uM [3]: 0.5

SMILES: CNC(=O)Oc1cccc2c1OC(C)(C)C2 [CARBO- FURAN]
- optical density, 3.13 uM [1]: 0.176
- optical density, 12.5 uM [2]: 0.264
- optical density, 50 uM [3]: 0.239

SMILES: C=C1CCC(OC(C)=O)/C(C)=C/C[C@@H]2[C@@H]1CC2(C)C (stereo partly drawn) [CARY[…]]
- minimal effective concentration (37° C.): 12.5 µM
- optical density, ypt1-ts, 0.39 (37° C.): 0.087
- optical density, ypt1-ts, 0.78 (37° C.): 0.076
- optical density, ypt1-ts, 1.56 (37° C.): 0.084
- optical density, ypt1-ts, 3.13 (37° C.): 0.1
- optical density, ypt1-ts, 6.25 (37° C.): 0.109
- optical density, ypt1-ts, 12.5 (37° C.): 0.239
- optical density, ypt1-ts, 25 (37° C.): 0.258

SMILES: CC1(C)C(=O)C=C[C@@]2(C)C1=C(O)C(=O)[C@]1(C)[C@@H]2CC[C@@]2(C)[C@H](c3ccoc3)C[C@H]3O[C@]321 [CEDRELONE]
- minimal effective concentration (37° C.): 1.56 µM
- optical density, ypt1-ts, 0.39 (37° C.): 0.221
- optical density, ypt1-ts, 0.78 (37° C.): 0.124
- optical density, ypt1-ts, 1.56 (37° C.): 0.264
- optical density, ypt1-ts, 3.13 (37° C.): 0.49
- optical density, ypt1-ts, 6.25 (37° C.): 0.532
- optical density, ypt1-ts, 12.5 (37° C.): 0.541
- optical density, ypt1-ts, 25 (37° C.): 0.496

SMILES: CC(CCC(=O)O)[C@H]1CCC2C3C(CC[C@@]21C)[C@@]1(C)CC[C@@H](O)C[C@H]1C[C@H]3O (stereo partly drawn) [CHENODIOL, reference compound]
- optical density, 3.13 uM [1]: 0.126
- optical density, 12.5 uM [2]: 0.285
- optical density, 50 uM [3]: 0.15

SMILES: CCOP(=S)(OCC)Oc1nc(Cl)c(Cl)cc1Cl [CHLOR- PYRIFOS]
- optical density, 3.13 uM [1]: 0.122
- optical density, 12.5 uM [2]: 0.166
- optical density, 50 uM [3]: 0.253

SMILES: CC(=O)O[C@]1(C(C)=O)CC[C@H]2[C@@H]3C=C(Cl)C4=CC(=O)CC[C@]4(C)[C@H]3CC[C@@]21C [CHLORMADINONE ACETATE, reference compound]
- minimal effective concentration (37° C.): 12.5 µM
- optical density, ypt1-ts, 0.39 (37° C.): 0.193
- optical density, ypt1-ts, 0.78 (37° C.): 0.078
- optical density, ypt1-ts, 1.56 (37° C.): 0.088
- optical density, ypt1-ts, 3.13 (37° C.): 0.112
- optical density, ypt1-ts, 6.25 (37° C.): 0.11
- optical density, ypt1-ts, 12.5 (37° C.): 0.2
- optical density, ypt1-ts, 25 (37° C.): 0.296

SMILES: CC(C)OC(=O)Nc1cccc(Cl)c1 [CHLORPROPHAM]
- minimal effective concentration (37° C.): 25 µM
- optical density, ypt1-ts, 0.39 (37° C.): 0.086
- optical density, ypt1-ts, 0.78 (37° C.): 0.072
- optical density, ypt1-ts, 1.56 (37° C.): 0.081
- optical density, ypt1-ts, 3.13 (37° C.): 0.09
- optical density, ypt1-ts, 6.25 (37° C.): 0.096
- optical density, ypt1-ts, 12.5 (37° C.): 0.101
- optical density, ypt1-ts, 25 (37° C.): 0.145

SMILES: CC1=C2C(=CO[C@H](C)[C@H]2C)C(=O)C(C(=O)O)=C1O [CITRININ]
- optical density, 3.13 uM [1]: 0.102
- optical density, 12.5 uM [2]: 0.158
- optical density, 50 uM [3]: 0.38

SMILES: Cl.Clc1cccc(Cl)c1N=C1NCCN1 [CLONIDINE HYDRO- CHLORIDE, reference compound]
- optical density, 3.13 uM: 0.237
- optical density, 12.5 uM: 0.095
- optical density, 50 uM: 0.064

SMILES: C=C1C(=O)OC2CC1C(OC(C)=O)C/C(C)=C/CC/C(C)=C/CC[C@]2(C)O (stereo partly drawn) [CRASSIN ACETATE]
- minimal effective concentration (37° C.): 12.5 µM
- optical density, ypt1-ts, 0.39 (37° C.): 0.084
- optical density, ypt1-ts, 0.78 (37° C.): 0.068
- optical density, ypt1-ts, 1.56 (37° C.): 0.075
- optical density, ypt1-ts, 3.13 (37° C.): 0.099
- optical density, ypt1-ts, 6.25 (37° C.): 0.107
- optical density, ypt1-ts, 12.5 (37° C.): 0.324
- optical density, ypt1-ts, 25 (37° C.): 0.443

SMILES: CC1(C)C(=O)C=C[C@@]2(C)C1CC(=O)[C@]1(C)C2CC[C@@]2(C)[C@H](c3ccoc3)OC(=O)[C@H]3O[C@]321 (stereo partly drawn) [DEACETOXY- 7-OXOGEDUNIN]
- optical density, 3.13 uM [1]: 0.594
- optical density, 12.5 uM [2]: 0.63
- optical density, 50 uM [3]: 0.642

SMILES: CC1(C)C(=O)C=C[C@@]2(C)C1C[C@@H](O)[C@]1(C)C2CC[C@@]2(C)[C@H](c3ccoc3)OC(=O)[C@H]3O[C@]321 (stereo partly drawn) [DEACETYL- GEDUNIN]
- optical density, 3.13 uM [1]: 0.116
- optical density, 12.5 uM [2]: 0.185
- optical density, 50 uM [3]: 0.377

— patent US20100305068A1, “COMPOUNDS AND METHODS FOR MODULATING PROTEIN TRAFFICKING” (priority 2006, published 2010)
